Experimental data taken from ChEMBL document CHEMBL1201862, “PubChem BioAssay data set” (2004).
Calls of active or inactive are those of the source.

Legend:
Major prion protein = Major prion protein (Homo sapiens, UniProt P04156); assay type: functional, cell-based
[1] = biological target: T1, Tyrosine-protein phosphatase non-receptor type 22 (Homo sapiens, UniProt Q9Y2R2); assay: LYP1 Fluorescent Assay using OMFP substrate for In Vitro dose response studies. [Related pubchem assays (depositor defined):AID1779, AID1784, AID435024]
T1 sequence (Q9Y2R2 whole entry): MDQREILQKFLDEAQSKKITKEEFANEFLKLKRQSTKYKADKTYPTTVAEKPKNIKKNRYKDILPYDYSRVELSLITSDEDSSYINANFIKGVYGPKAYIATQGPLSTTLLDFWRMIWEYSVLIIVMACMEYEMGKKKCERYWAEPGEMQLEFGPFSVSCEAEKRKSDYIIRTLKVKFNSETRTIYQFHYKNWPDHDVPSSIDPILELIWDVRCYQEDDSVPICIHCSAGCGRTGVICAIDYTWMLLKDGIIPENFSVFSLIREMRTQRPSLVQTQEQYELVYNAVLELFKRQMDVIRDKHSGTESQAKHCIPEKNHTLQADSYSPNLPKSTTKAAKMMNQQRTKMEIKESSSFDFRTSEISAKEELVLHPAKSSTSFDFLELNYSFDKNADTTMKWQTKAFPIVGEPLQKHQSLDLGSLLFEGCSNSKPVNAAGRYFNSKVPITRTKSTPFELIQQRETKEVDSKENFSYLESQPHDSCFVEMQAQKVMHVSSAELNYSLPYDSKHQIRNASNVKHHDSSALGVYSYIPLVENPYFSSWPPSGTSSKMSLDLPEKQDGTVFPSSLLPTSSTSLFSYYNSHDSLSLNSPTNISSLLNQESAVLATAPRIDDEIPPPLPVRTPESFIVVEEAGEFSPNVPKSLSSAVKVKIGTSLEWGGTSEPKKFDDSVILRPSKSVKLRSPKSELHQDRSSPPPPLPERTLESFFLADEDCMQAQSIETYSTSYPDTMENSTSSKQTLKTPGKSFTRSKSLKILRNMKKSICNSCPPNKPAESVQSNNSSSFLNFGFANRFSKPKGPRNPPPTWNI

[2] = biological target: Photoreceptor-specific nuclear receptor (Homo sapiens, UniProt Q9Y5X4); assay: NR2E3 inverse agonists, dose response, biochemical, TR-FRET (AID 463256); assay type: functional
[3] = biological target: 72 kDa type IV collagenase (Homo sapiens, UniProt P08253); assay: Dose Response validation of uHTS RPN11 inhibitor hits using a MMP-2 Fluorescence assay.; assay type: functional
[4] = biological target: T2, Tyrosine-protein phosphatase non-receptor type 7 (Homo sapiens, UniProt P35236); assay type: functional
T2 sequence (P35236 whole entry): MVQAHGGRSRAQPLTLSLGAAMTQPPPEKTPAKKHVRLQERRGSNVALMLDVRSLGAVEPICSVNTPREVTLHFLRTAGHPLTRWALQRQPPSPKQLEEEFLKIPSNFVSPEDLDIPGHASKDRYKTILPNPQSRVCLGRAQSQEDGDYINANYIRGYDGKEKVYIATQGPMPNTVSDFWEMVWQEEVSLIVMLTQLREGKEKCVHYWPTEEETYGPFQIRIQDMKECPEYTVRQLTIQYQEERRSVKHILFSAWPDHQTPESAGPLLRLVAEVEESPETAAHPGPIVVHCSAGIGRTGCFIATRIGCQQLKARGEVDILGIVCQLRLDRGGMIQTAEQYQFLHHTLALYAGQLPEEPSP

[5] = biological target: Guanyl-specific ribonuclease T1 (Aspergillus oryzae (strain ATCC 42149 / RIB 40), UniProt P00651); assay: RNase T1 inhibitors, dose response, counter-screen for TPT1 inhibitor project, biochemical, fluorescence polarization, 1536-well (AID 2167)
[6] = biological target: Serine/threonine-protein phosphatase PP1-alpha catalytic subunit (Homo sapiens, UniProt P62136); assay: PP1 phosphatase inhibitors, dose response, biochemical, fluorescence (AID 2403);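 note: phosphatase turnover of OMFP into fluorescent 3-O-methylfluorescein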
[7] = biological target: T1, Tyrosine-protein phosphatase non-receptor type 22; assay: inhibitors of LYP phosphatase, biochemical, fluorescence intensity, uHTS (AID 1779)
[8] = biological target: Peroxisome proliferator-activated receptor gamma/Nuclear receptor corepressor 2 (Homo sapiens, UniProt P37231+Q9Y618); assay: Counterscreen for NR2E3 inverse agonists: TR-FRET-based biochemical high throughput dose response assay to identify inverse agonists of the interaction between peroxisome proliferator-activated receptor gamma (PPARg) and nuclear receptor co-repressor 2 (NCOR2).; assay type: functional
[9] = biological target: T1, Tyrosine-protein phosphatase non-receptor type 22; assay type: functional
[10] = biological target: 26S proteasome non-ATPase regulatory subunit 14 (Homo sapiens, UniProt O00487); assay: inhibition of proteasome subunit RPN11 – biochemical, fluorescence polarization, uHTS hits, confirmation (AID 602368); assay type: functional
Prothrombin = Prothrombin (Bos taurus, UniProt P00735); assay: thrombin inhibition, dose response, biochemical, fluorescence polarization, uHTS hits (AID 602369); assay type: functional
cells [11] = assay: cells
[12] = biological target: T1, Tyrosine-protein phosphatase non-receptor type 22; assay type: functional; remark: listed apart in the source
[13] = biological target: Likely tRNA 2'-phosphotransferase (Candida albicans (strain SC5314 / ATCC MYA-2876) (Yeast), UniProt Q5A7N4); assay: TPT1 tRNA phosphotransferase inhibitors, dose response, biochemical, fluorescence polarization (AID 2160)
[14] = biological target: T2, Tyrosine-protein phosphatase non-receptor type 7; assay: HTS HePTP Fluorescent Assay using OMFP substrate for In Vitro dose response studies. [Related pubchem assays (depositor defined):AID1059, AID1077, AID1784, AID2068, AID2085, AID435032, AID521]; assay type: functional
[15] = biological target: T3, Serine/threonine-protein phosphatase (Homo sapiens, UniProt Q9BPW0); assay: Counterscreen for inhibitors of PP1: fluorescence-based biochemical high throughput dose response assay to identify inhibitors of Protein Phosphatase 5 (PP5). [Related pubchem assays: 2034 (Summary (PP5 inhibitors)), 1987 (PP5 inhibitors in singlate), 2235 (PP1 inhibitors in singlate)]
T3 sequence (Q9BPW0 whole entry): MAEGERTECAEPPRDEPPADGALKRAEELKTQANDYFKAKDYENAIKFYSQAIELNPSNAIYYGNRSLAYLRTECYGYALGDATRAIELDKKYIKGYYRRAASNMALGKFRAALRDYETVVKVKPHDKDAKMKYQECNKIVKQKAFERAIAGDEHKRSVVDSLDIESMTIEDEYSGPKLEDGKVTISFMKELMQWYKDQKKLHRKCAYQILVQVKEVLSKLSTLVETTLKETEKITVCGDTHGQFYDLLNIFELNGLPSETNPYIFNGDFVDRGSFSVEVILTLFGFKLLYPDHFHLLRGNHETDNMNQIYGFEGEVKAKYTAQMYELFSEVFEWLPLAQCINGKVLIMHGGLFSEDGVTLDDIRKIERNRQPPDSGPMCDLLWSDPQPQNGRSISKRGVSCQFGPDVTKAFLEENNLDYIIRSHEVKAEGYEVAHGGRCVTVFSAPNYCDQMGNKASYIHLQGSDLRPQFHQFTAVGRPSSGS

[16] = biological target: T4, G-protein coupled receptor 55 (Homo sapiens, UniProt Q9Y2T6); assay: GPR55 agonists via beta-arrestin recruitment, primary screen, imaging, U2OS cells, beta-arrestin-GFP redistribution (AID 1961); assay type: functional
[17] = biological target: T4, G-protein coupled receptor 55; assay: SAR analysis of selective Agonists of GPR55 using an Image-Based Assay. [Related pubchem assays (depositor defined):AID1961, AID1965]; assay type: functional
Cannabinoid receptor 1 [18] = biological target: T5, Cannabinoid receptor 1 (Homo sapiens, UniProt P21554); assay: SAR analysis of antagonists of the Cannabinoid Receptor 1 using an Image-Based Assay. [Related pubchem assays (depositor defined):AID1961, AID1965]; assay type: functional
Cannabinoid receptor 2 [19] = biological target: T6, Cannabinoid receptor 2 (Homo sapiens, UniProt P34972); assay: SAR analysis of agonists of the Cannabinoid Receptor 2 using an Image-Based Assay - Set 2. [Related pubchem assays (depositor defined):AID1961, AID1965]; assay type: functional
Cannabinoid receptor 2 [20] = biological target: T6, Cannabinoid receptor 2; assay: SAR analysis of antagonists of the Cannabinoid Receptor 2 using an Image-Based Assay - Set 2. [Related pubchem assays (depositor defined):AID1961, AID1965]; assay type: functional
SUMO-activating enzyme [21] = biological target: T7, SUMO-activating enzyme (Homo sapiens, UniProt Q9UBT2); assay: SUMOylation inhibitor hit validation, confirmation, SUMOylation inhibitor project, biochemical, AlphaScreen (AID 2018); assay type: functional
cells [22] = assay type: functional, cell-based
[23] = Luminescence Cell-Based Dose Retest to Confirm Inhibitors of Cancer Stem Cells. [Related pubchem assays (depositor defined):AID2717, AID2721]; assay type: functional; conditions: Homo sapiens
cells [24] = assay type: functional, cell-based; remark: listed apart in the source
SUMO-activating enzyme [25] = biological target: T7, SUMO-activating enzyme; assay: inhibitors of in vitro SUMOylation cascade, primary screen, biochemical, HTRF, uHTS (AID 2006); assay type: protein-complex assay
Cannabinoid receptor 1 [26] = biological target: T5, Cannabinoid receptor 1; assay: SAR analysis of agonists of the Cannabinoid Receptor 1 using an Image-Based Assay - Set 2. [Related pubchem assays (depositor defined):AID2013, AID2026]; assay type: functional
[27] = biological target: T8, G-protein coupled receptor 35 (Homo sapiens, UniProt Q9HC97); assay: SAR analysis of Antagonists of the GPR35 Receptor using an Image-Based Assay - Set 3. [Related pubchem assays (depositor defined):AID2013, AID2026]; assay type: functional
[28] = biological target: T4, G-protein coupled receptor 55; assay: GPR55 antagonist potency of analogs, SAR follow-up, imaging, U2OS, beta-arrestin-GFP, LPI agonist, set 2 (AID 2820); assay type: functional
Cannabinoid receptor 1 [29] = biological target: T5, Cannabinoid receptor 1; assay: SAR analysis of antagonists of the Cannabinoid Receptor 1 using an Image-Based Assay - Set 2. [Related pubchem assays (depositor defined):AID2013, AID2026]; assay type: functional
[30] = biological target: T9, Heat shock factor protein 1 (Mus musculus, UniProt P38532); assay: inhibition of MG132-induced HSE-luciferase signal, confirmation, cell-based, NIH3T3, luminescence, dose retest (AID 2382); assay type: functional;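 note: NIH3T3 fibroblasts with HSF1-driven luciferase reporter stressed by proteasome inhibitor MG132; luminescence from HSF1-driven luciferase expression after 8 hours of MG132 stress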
T9 sequence (P38532 whole entry): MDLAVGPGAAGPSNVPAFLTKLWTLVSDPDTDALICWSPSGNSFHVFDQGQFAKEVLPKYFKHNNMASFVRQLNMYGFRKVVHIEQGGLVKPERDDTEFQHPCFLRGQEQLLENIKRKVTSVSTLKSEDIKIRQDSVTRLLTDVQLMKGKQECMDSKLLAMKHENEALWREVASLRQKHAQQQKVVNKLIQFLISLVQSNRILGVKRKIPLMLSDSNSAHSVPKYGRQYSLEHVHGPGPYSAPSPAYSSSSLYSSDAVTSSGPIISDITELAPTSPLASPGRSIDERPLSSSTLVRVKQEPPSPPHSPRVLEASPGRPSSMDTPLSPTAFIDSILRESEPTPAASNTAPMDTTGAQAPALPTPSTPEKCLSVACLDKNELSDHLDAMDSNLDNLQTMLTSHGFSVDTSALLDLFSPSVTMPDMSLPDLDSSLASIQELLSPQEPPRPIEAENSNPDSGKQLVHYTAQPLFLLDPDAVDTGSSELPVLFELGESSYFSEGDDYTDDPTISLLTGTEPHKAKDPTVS

Cannabinoid receptor 2 [31] = biological target: T6, Cannabinoid receptor 2; assay: SAR analysis of agonists of the Cannabinoid Receptor 2 using an Image-Based Assay. [Related pubchem assays (depositor defined):AID2013, AID2026]; assay type: functional
Cannabinoid receptor 2 [32] = biological target: T6, Cannabinoid receptor 2; assay: SAR analysis of antagonists of the Cannabinoid Receptor 2 using an Image-Based Assay. [Related pubchem assays (depositor defined):AID2013, AID2026]; assay type: functional
[33] = biological target: T4, G-protein coupled receptor 55; assay: GPR55 antagonists blocking LPI-driven arrestin recruitment, primary screen, imaging, U2OS, beta-arrestin-GFP, LPI agonist (AID 2013); assay type: functional;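 note: antagonist potency measured as reduced agonist-driven arrestin aggregation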
[34] = biological target: T8, G-protein coupled receptor 35; assay: SAR analysis of Agonists of the GPR35 Receptor using an Image-Based Assay - Set 2. [Related pubchem assays (depositor defined):AID2013, AID2026]; assay type: functional
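Throughout, for AC50: cells exposed to compound for roughly 70 hours or longer before luminescence read.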

COc1ccc(Cl)cc1C(=O)Nc1cccc(-c2ccc3nncn3n2)c1
IC50 (Major prion protein): 9.03 µM (active)
IC50 [1]: > 99 µM (inactive)
IC50 [2]: 2.86 µM (active)
IC50 [3]: 8.37 µM (active)
IC50 [4]: 48.7 µM (active)
IC50 [5]: 7.18 µM (active)
IC50 [6]: 6.56 µM (active)
IC50 [7]: 50.8 µM (active)
IC50 [8]: 5.06 µM (active)
IC50 [9]: 16 µM (active)
IC50 [10]: 12 µM (active)
IC50 (Prothrombin): 30.2 µM (active)
IC50 (cells [11]): > 138 µM (inactive)
IC50 [12]: 38.5 µM (active)
IC50 [13]: 5.93 µM (active)
IC50 [14]: 37.9 µM (active)
IC50 [15]: > 67 µM (not active)

CC(C)Oc1ccc(S(=O)(=O)N2CCOCC2)cc1NC(=O)c1ccc(N2CCCC2=O)cc1
EC50 [16]: 0.969 µM (active)
EC50 [17]: 0.88 µM (active)
IC50 (Cannabinoid receptor 1 [18]): > 32 µM (inactive)
EC50 (Cannabinoid receptor 2 [19]): > 32 µM (inactive)
IC50 (Cannabinoid receptor 2 [20]): > 32 µM (inactive)

C/C(=N\OCc1nc2ccccc2c(=O)n1/N=C/c1cc([N+](=O)[O-])ccc1O)c1ccccc1
IC50 (SUMO-activating enzyme [21]): 5.22 µM (active)
EC50 (cells [22]): > 350 µM (not active)
AC50 [23]: 7.33 µM (active)
EC50 (cells [24]): 245 µM (active)
IC50 (SUMO-activating enzyme [25]): 41.1 µM (active)

CCN1C(=O)C(c2ccc(O)cc2)(c2ccc(O)cc2)c2ccccc21
EC50 (Cannabinoid receptor 1 [26]): > 32 µM (inactive)
IC50 [27]: > 32 µM (inactive)
IC50 [28]: 0.506 µM (active)
IC50 (Cannabinoid receptor 1 [29]): 22 µM (inactive)
EC50 [30]: > 195 µM (not active)
EC50 (Cannabinoid receptor 2 [31]): > 32 µM (inactive)
IC50 (Cannabinoid receptor 2 [32]): > 32 µM (inactive)
IC50 [33]: 1.74 µM (active)
EC50 [34]: > 32 µM (inactive)
